Test results as given in paper PMC4791841, “Nanomolar Inhibitors of Trypanosoma brucei RNA Triphosphatase” (mBio, 2016).
pIC50, pKi: −log10 of the molar value. Each block holds one compound with its values, some of them ahead of it.

How the values were obtained:
[1] = target: T1, MimiCE (Acanthamoeba polyphaga mimivirus, UniProt Q5UQX1); experiment: biochemical; format: biochemical;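 further: mimivirus capping enzyme triphosphatase ATPase reaction, radiolabeled ATP hydrolysis to Pi quantified by TLC after 10 min, normalized to no-inhibitor control with 5% DMSO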
T1 construct: the N-terminal RTPase domain (amino acids [aa] 1 to 237) of mimivirus capping enzyme (MimiCE); HisSmt3 (N, cleaved yes); made in house; host or cells: Escherichia coli

[2] = target: T2, SceCet1 (Saccharomyces cerevisiae, UniProt O13297); experiment: TLC assay for 32Pi release from [γ-32P]ATP, SceCet1; format: biochemical
T2 construct: C-terminal catalytic domain (aa 241 to 539) of S. cerevisiae RTPase (SceCet1); made in house; host or cells: Escherichia coli

[3] = target: T3, CthTTM (Acetivibrio thermocellus, UniProt A3DIJ8); experiment: TLC assay for 32Pi release from [γ-32P]ATP, CthTTM; format: biochemical, Clostridium thermocellum
T3 sequence (A3DIJ8 1-156): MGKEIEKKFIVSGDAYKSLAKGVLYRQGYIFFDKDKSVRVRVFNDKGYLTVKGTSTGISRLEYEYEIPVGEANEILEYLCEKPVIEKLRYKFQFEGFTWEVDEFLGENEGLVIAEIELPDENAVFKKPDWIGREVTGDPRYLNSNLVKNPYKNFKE

[4] = target: T4, Lef4 (Autographa californica nuclear polyhedrosis virus, UniProt P41477); experiment: TLC assay for 32Pi release from [γ-32P]ATP, Lef4; format: biochemical, Autographa californica nucleopolyhedrovirus (AcNPV);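 further: Lef4 RNA triphosphatase cleaving radiolabelled ATP over 10 min at 37°C, hydrolysis set relative to inhibitor-free 5% DMSO controls, comparisons made against TbCet1 tested the same way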
T4 construct: the N-terminal RTPase domain (aa 1 to 236) of AcNPV Lef4 capping enzyme; HisSmt3 (N, cleaved yes); made in house; host or cells: Escherichia coli

[5] = tested on: procyclic T. brucei; experiment: cell proliferation of cultured procyclic T. brucei; format: cell-based, Trypanosoma brucei; details: 10 µM; preliminary studies, data not shown
[6] = target: T5, TbCet1 (Trypanosoma brucei brucei, UniProt Q582T2); experiment: TLC assay for 32Pi release from [γ-32P]ATP, TbCet1; details: 2.2 nM TbCet1, 0.2 mM ATP, 2 mM Mn2+, 10 min 37°C
T5 sequence (Q582T2 1-253): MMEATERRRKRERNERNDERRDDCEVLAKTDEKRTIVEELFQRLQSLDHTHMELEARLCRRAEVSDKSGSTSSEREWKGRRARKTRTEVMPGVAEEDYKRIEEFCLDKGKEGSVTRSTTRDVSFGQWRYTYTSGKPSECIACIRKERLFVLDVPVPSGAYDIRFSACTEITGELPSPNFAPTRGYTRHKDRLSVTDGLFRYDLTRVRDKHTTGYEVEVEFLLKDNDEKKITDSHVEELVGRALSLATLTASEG

[7] = target: T5, TbCet1; experiment: colorimetric malachite green HTS assay of Pi release from ATP by TbCet1
[8] = tested on: Leishmania amazonensis; parameters: method as in PMID 25880257; details: cited from earlier work
[9] = tested on: Trypanosoma cruzi amastigotes; parameters: method as in PMID 25880257; details: cited from earlier work
[10] = target: T5, TbCet1; parameters: Recombinant full-length T. brucei RTPase TbCet1; HisSmt3 (N, cleaved yes); made in house; host or cells: Escherichia coli; method as in PMID 14525979; details: ATP substrate Km 25 µM; read-out: Ki, competitive inhibitor of TbCet1; cited from earlier work

T2 sequence (O13297 241-539): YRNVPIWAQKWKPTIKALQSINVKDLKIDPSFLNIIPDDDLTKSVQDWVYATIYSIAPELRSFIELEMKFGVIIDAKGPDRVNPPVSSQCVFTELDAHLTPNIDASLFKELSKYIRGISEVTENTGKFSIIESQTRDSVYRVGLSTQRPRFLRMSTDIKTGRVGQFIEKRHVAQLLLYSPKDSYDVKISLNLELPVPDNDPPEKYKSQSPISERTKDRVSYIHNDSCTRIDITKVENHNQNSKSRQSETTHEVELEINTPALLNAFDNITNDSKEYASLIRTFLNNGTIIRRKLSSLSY
T1 sequence (Q5UQX1 1-237): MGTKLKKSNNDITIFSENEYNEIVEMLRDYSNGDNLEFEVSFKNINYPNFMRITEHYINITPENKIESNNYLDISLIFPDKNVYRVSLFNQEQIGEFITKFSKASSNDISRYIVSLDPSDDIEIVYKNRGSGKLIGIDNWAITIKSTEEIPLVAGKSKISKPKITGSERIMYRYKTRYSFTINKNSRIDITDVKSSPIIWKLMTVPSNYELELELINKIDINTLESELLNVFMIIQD
T4 sequence (P41477 1-236): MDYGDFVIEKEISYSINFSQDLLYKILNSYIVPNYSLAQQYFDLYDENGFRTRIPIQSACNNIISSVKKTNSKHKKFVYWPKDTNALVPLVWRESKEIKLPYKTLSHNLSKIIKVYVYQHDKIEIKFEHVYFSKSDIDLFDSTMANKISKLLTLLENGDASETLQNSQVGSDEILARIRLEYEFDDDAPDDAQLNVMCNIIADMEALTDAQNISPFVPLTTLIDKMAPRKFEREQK

SMILES: O=C(/C=C/c1ccc(O)c(O)c1)O[C@@H]1C[C@](OC(=O)/C=C/c2ccc(O)c(O)c2)(C(=O)O)C[C@@H](OC(=O)/C=C/c2ccc(O)c(O)c2)[C@H]1OC(=O)/C=C/c1ccc(O)c(O)c1 [Compound 1A, 1,3,4,5-O-tetracaffeoylquinic acid]
fold lower potency against MimiCE than against TbCet1 [1]: 110 fold
pIC50 ([1]; 7 nM MimiCE, 37°C, read-out: IC50 MimiCE): 5.85
IC50/IC50 TbCet1, MimiCE ([1]; ratio in parentheses): 108
pIC50 [2]: 5.15
fold lower potency against SceCet1 than against TbCet1 [2]: 550 fold
IC50/IC50 TbCet1, SceCet1 ([2]; ratio in parentheses): 546
fold lower potency against CthTTM than against TbCet1 [3]: 850 fold
pIC50 ([3]; 500 nM CthTTM, 37°C, read-out: IC50 CthTTM): 4.96
IC50/IC50 TbCet1, CthTTM ([3]; ratio in parentheses): 846
fold lower potency against Lef4 than against TbCet1 [4]: 440 fold
pIC50 ([4]; 50 nM Lef4, 37°C, read-out: IC50 Lef4): 5.24
IC50/IC50 TbCet1, Lef4 ([4]; ratio in parentheses): 438
effect on cell proliferation [5]: no effect
pIC50 ([6]; IC50 TbCet1 by 32P assay): 7.89
pIC50 [7]: 7.70

pIC50 ([6]; read-out: IC50 TbCet1 by 32P assay): 7.15
pIC50 ([7]; read-out: IC50 by HTS assay, colorimetric phosphate release from ATP, Mn2+): 7.40
SMILES: O=C(/C=C/c1ccc(O)c(O)c1)O[C@@H]1CC(O)(C(=O)O)C[C@@H](OC(=O)/C=C/c2ccc(O)c(O)c2)C1O (some centres unmarked) [Compound 1B, 3,5-O-dicaffeoylquinic acid]
activity against Leishmania amazonensis [8]: inactive
activity against Trypanosoma cruzi amastigotes [9]: inactive

SMILES: O=P(O)(O)OP(=O)(O)OP(=O)(O)O [Tripolyphosphate]
pKi [10]: 5.85
